Test results reported in PubChem BioAssay AID1918954 (Molecular Pharmacology Branch, DTP, NCI, 2023).
pIC50: −log10 of the molar value. Values joined by “and” are separate entries in the source; they are usually repeats but may differ in a detail not shown here. Equal values may be shown once.

System: MDA-MB-468 complex spheroids with HUVEC/MSC, viability
Test: Anticancer human tumor MDA-MB-468 cell line growth inhibition;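 further: spheroids exposed to agents for seven days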;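 on viability, T/C: 100% = DMSO vehicle control viability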
Settings: for viability, T/C: stronger effect = lower value
Summary of the method: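 Multicellular complex spheroids of tumor cells with human endothelial cells (HUVEC) and mesenchymal stem cells; the LSD1 inhibitor iadademstat was combined with standard-of-care or investigational agents. Top concentration at or near clinical Cmax, half-log dilutions; final DMSO ≤0.25%.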

In the case of O=C(c1cc(Cc2n[nH]c(=O)c3ccccc23)ccc1F)N1CCN(C(=O)C2CC2)CC1 + NC1CC1c1ccc(-c2cccc(O)c2)cc1, the pIC50 (curve of first compound, second compound 0.1 µM) was 6.04, the pIC50 (curve of first compound, second compound 0.316 µM) was 6.08 and the pIC50 (curve of first compound, second compound 1 µM) was 6.19. For the same compound, the pIC50 (curve of first compound, second compound 3.16 µM) was 6.17, the pIC50 (curve of first compound, second compound 10 µM) was 6.84 and the viability, T/C (second compound 0.1 µM, first compound 0.0316 µM) was 93.6%. For the same compound, the viability, T/C (second compound 0.1 µM, first compound 0.1 µM) was 88.1%, the viability, T/C (second compound 0.1 µM, first compound 0.316 µM) was 70.5% and the viability, T/C (second compound 0.1 µM, first compound 1 µM) was 52.7%. The viability, T/C (second compound 0.1 µM, first compound 3.16 µM) was 18.6%, the viability, T/C (second compound 0.1 µM, first compound 10 µM) was 14.2% and the viability, T/C (second compound 0.316 µM, first compound 0.0316 µM) was 88.6%. For the same compound, the viability, T/C (second compound 0.316 µM, first compound 0.1 µM) was 88.2%, the viability, T/C (second compound 0.316 µM, first compound 0.316 µM) was 76% and the viability, T/C (second compound 0.316 µM, first compound 1 µM) was 46.2%. For the same compound, the viability, T/C (second compound 0.316 µM, first compound 3.16 µM) was 16.2%, the viability, T/C (second compound 0.316 µM, first compound 10 µM) was 11.9% and the viability, T/C (second compound 1 µM, first compound 0.0316 µM) was 98.2%. The viability, T/C (second compound 1 µM, first compound 0.1 µM) was 82.3%, the viability, T/C (second compound 1 µM, first compound 0.316 µM) was 66.7% and the viability, T/C (second compound 1 µM, first compound 1 µM) was 43.4%. For the same compound, the viability, T/C (second compound 1 µM, first compound 3.16 µM) was 13.9%, the viability, T/C (second compound 1 µM, first compound 10 µM) was 8.61% and the viability, T/C (second compound 3.16 µM, first compound 0.0316 µM) was 82%. It also gave a viability, T/C (second compound 3.16 µM, first compound 0.1 µM) of 75.4%, a viability, T/C (second compound 3.16 µM, first compound 0.316 µM) of 72.5% and a viability, T/C (second compound 3.16 µM, first compound 1 µM) of 38.7%. For the same compound, the viability, T/C (second compound 3.16 µM, first compound 3.16 µM) was 12.5%, the viability, T/C (second compound 3.16 µM, first compound 10 µM) was 7.33% and the viability, T/C (second compound 10 µM, first compound 0.0316 µM) was 63%. The viability, T/C (second compound 10 µM, first compound 0.1 µM) was 51.4%, the viability, T/C (second compound 10 µM, first compound 0.316 µM) was 43.6% and the viability, T/C (second compound 10 µM, first compound 1 µM) was 26.6%. For the same compound, the viability, T/C (second compound 10 µM, first compound 3.16 µM) was 13.8% and the viability, T/C (second compound 10 µM, first compound 10 µM) was 8.66%.

Work on NC1CC1c1ccc(-c2cccc(O)c2)cc1 (stereo not given) yielded a pIC50 (compound alone, run of 02/01/2022) of less than 5.00.

In the case of CCN(c1cc(-c2ccc(CN3CCOCC3)cc2)cc(C(=O)NCc2c(C)cc(C)[nH]c2=O)c1C)C1CCOCC1, the viability, T/C (compound 0.00949 µM) was 81.6% and 96.5%, the viability, T/C (compound 0.03 µM) was 100% and 76.8% and the viability, T/C (compound 0.0949 µM) was 118% and 74.4%. The viability, T/C (compound 0.3 µM) was 92.3% and 50.2%, the viability, T/C (compound 0.949 µM) was 92.2% and 44% and the viability, T/C (compound 3 µM) was 75.7% and 24.5%. The pIC50 (curve of compound) was < 5.52 and 6.36.

For NC1CCC(NC2CC2c2ccccc2)CC1 (stereo not given), the viability, T/C (compound 0.316 µM) was 96.4% and 88.1% and 98.6% and the pIC50 (compound alone, run of 01/24/2022) was < 5.00 and 5.02.
